Source: patent US20230085307A1, “PYRIDAZINONE COMPOUND AND HERBICIDE” (NISSAN CHEMICAL CORPORATION, priority 2019, published 2023)

Key:
late watergrass [1] = assay: Test Example 1: herbicidal activity, application before weed generation under submerged conditions (Table 16, symbol A); type: in vivo, late watergrass (Echinochloa oryzicola); conditions: amount of applied herbicide 320 g/ha
Outline: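 Submerged Wagner pots (alluvial soil, 4 cm water) sown with weed seeds and planted with 2.5-leaf rice seedlings; emulsifiable concentrate diluted in water applied to water surface on sowing day. Held in greenhouse at 25-30 °C; injury scored 0-5 by herbicidal rate after three weeks.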

late watergrass [2] = assay: Test Example 2: herbicidal activity, application during weed generation under submerged conditions (Table 17, symbol A); type: in vivo, late watergrass (Echinochloa oryzicola); conditions: AAH 320 g/ha; application during weed generation, submerged conditions
Outline: (§1)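 Alluvial soil in Wagner pots was flooded to 4 cm depth and sown with the three weeds together; pots were kept in a greenhouse at 25° C. to 30° C. At the one to two leaf stage, an emulsion formulation diluted in water to a set rate went onto the water surface; scored three weeks later.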

Japanese bulrush = assay: Test Example 2: herbicidal activity, application during weed generation under submerged conditions (Table 17, symbol B); type: in vivo, Japanese bulrush (Schoenoplectus juncoides); conditions: AAH 320 g/ha; application during weed generation, submerged conditions
Outline: as §1

oval-leafed pondweed = assay: Test Example 2: herbicidal activity, application during weed generation under submerged conditions (Table 17, symbol C); type: in vivo, oval-leafed pondweed (Monochoria vaginalis); conditions: AAH 320 g/ha; application during weed generation, submerged conditions
Outline: as §1

barnyard grass = assay: Test Example 3: herbicidal effect by foliage application, Wagner pot (Table 18, symbol H); type: in vivo, barnyard grass (Echinochloa crus-galli); conditions: 320 g/ha
Outline: (§2)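 Plants were sown in alluvial soil held under 0.1–0.5 cm standing water and grown 14 days in a greenhouse at 25–30 °C. An emulsifiable formulation, water-diluted to the set dose, was then sprayed onto the foliage, and effects were scored three weeks later using previously defined criteria.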

rice flat sedge = assay: Test Example 3: herbicidal effect by foliage application, Wagner pot (Table 18, symbol E); type: in vivo, rice flat sedge (Cyperus iria); conditions: 320 g/ha
Outline: as §2

green foxtail [3] = assay: Test Example 4: herbicidal effect by soil treatment (Table 19, symbol G); type: in vivo, green foxtail (Setaria viridis); conditions: amount of applied herbicide 320 g/ha
Outline: (§3)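 Seeds were sown in sterilized diluvial soil and covered with about 1.5 cm of soil. An emulsion formulation diluted with water to a predetermined herbicide amount was sprayed evenly onto the soil surface. Plants grew in a greenhouse at 25° C. to 30° C., and the effect was scored three weeks after application using criteria from an earlier test.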

Italian ryegrass [4] = assay: Test Example 4: herbicidal effect by soil treatment (Table 19, symbol K); type: in vivo, Italian ryegrass (Lolium multiflorum); conditions: amount of applied herbicide 320 g/ha
Outline: as §3

windgrass [5] = assay: Test Example 4: herbicidal effect by soil treatment (Table 19, symbol L); type: in vivo, windgrass (Apera spica-venti); conditions: amount of applied herbicide 320 g/ha
Outline: as §3

chickweed = assay: Test Example 4: herbicidal effect by soil treatment (Table 19, symbol P); type: in vivo, common chickweed (Stellaria media); conditions: amount of applied herbicide 320 g/ha
Outline: as §3

persian speedwell [6] = assay: Test Example 4: herbicidal effect by soil treatment (Table 19, symbol R); type: in vivo, Persian speedwell (Veronica persica); conditions: amount of applied herbicide 320 g/ha
Outline: as §3

southern crabgrass = assay: Test Example 5: herbicidal effect by foliage application, plastic box (Table 20, symbol F); type: in vivo, southern crabgrass (Digitaria ciliaris); conditions: 320 g/ha; for F: southern crabgrass, herbicidal effect grade: foliage application, three weeks after application
Outline: (§4)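 Plants sown in sterilized diluvial soil and grown 14 days in a greenhouse at 25° C to 30° C, then sprayed on the foliage with the compound's emulsion diluted in water to a predetermined herbicide amount. Injury to weeds and crops scored three weeks after application on a visual rating scale.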

green foxtail [7] = assay: Test Example 5: herbicidal effect by foliage application, plastic box (Table 20, symbol G); type: in vivo, green foxtail (Setaria viridis); conditions: 320 g/ha; for G: green foxtail, herbicidal effect grade: foliage application, three weeks after application
Outline: as §4

Italian ryegrass [8] = assay: Test Example 5: herbicidal effect by foliage application, plastic box (Table 20, symbol K); type: in vivo, Italian ryegrass (Lolium multiflorum); conditions: 320 g/ha; for K: Italian ryegrass, herbicidal effect grade: foliage application, three weeks after application
Outline: as §4

windgrass [9] = assay: Test Example 5: herbicidal effect by foliage application, plastic box (Table 20, symbol L); type: in vivo, windgrass (Apera spica-venti); conditions: 320 g/ha; for L: windgrass, herbicidal effect grade: foliage application, three weeks after application
Outline: as §4

lambsquarters = assay: Test Example 5: herbicidal effect by foliage application, plastic box (Table 20, symbol O); type: in vivo, lambsquarters (Chenopodium album); conditions: 320 g/ha; for O: lambsquarters, herbicidal effect grade: foliage application, three weeks after application
Outline: as §4

persian speedwell [10] = assay: Test Example 5: herbicidal effect by foliage application, plastic box (Table 20, symbol R); type: in vivo, Persian speedwell (Veronica persica); conditions: 320 g/ha; for R: persian speedwell, herbicidal effect grade: foliage application, three weeks after application
Outline: as §4

[11] = foliage application after 14-day growth, evaluated three weeks after application

Structure (SMILES): COc1ccccc1-c1sc2cc(OCC(F)F)ccc2c1-c1c(O)c(C)nn(C)c1=O [3-114]
- Herbicidal effect, A: late watergrass (late watergrass [1]): 5 (Herbicidal rate of 90% or more (almost completely withered))
- herbicidal effect rating, A: late watergrass (late watergrass [2]): 3 (Herbicidal rate of 40% or more and less than 70%)
- herbicidal effect rating, B: Japanese bulrush (Japanese bulrush): 4 (Herbicidal rate of 70% or more and less than 90%)
- herbicidal effect rating, C: oval-leafed pondweed (oval-leafed pondweed): 5 (Herbicidal rate of 90% or more (almost completely withered))
- herbicidal effect on barnyard grass (H) (barnyard grass): 5 (Herbicidal rate of 90% or more (almost completely withered))
- herbicidal effect on rice flat sedge (E) (rice flat sedge): 5 (Herbicidal rate of 90% or more (almost completely withered))
- G: green foxtail, herbicidal effect grade (green foxtail [3]): 5 (Herbicidal rate of 90% or more (almost completely withered))
- K: Italian ryegrass, herbicidal effect grade (Italian ryegrass [4]): 5 (Herbicidal rate of 90% or more (almost completely withered))
- L: windgrass, herbicidal effect grade (windgrass [5]): 5 (Herbicidal rate of 90% or more (almost completely withered))
- P: chickweed, herbicidal effect grade (chickweed): 5 (Herbicidal rate of 90% or more (almost completely withered))
- R: persian speedwell, herbicidal effect grade (persian speedwell [6]): 5 (Herbicidal rate of 90% or more (almost completely withered))
- F: southern crabgrass, herbicidal effect grade (southern crabgrass): 5 (Herbicidal rate of 90% or more (almost completely withered))
- G: green foxtail, herbicidal effect grade (green foxtail [7]): 5 (Herbicidal rate of 90% or more (almost completely withered))
- K: Italian ryegrass, herbicidal effect grade (Italian ryegrass [8]): 5 (Herbicidal rate of 90% or more (almost completely withered))
- L: windgrass, herbicidal effect grade (windgrass [9]): 5 (Herbicidal rate of 90% or more (almost completely withered))
- O: lambsquarters, herbicidal effect grade (lambsquarters): 5 (Herbicidal rate of 90% or more (almost completely withered))
- R: persian speedwell, herbicidal effect grade (persian speedwell [10]): 5 (Herbicidal rate of 90% or more (almost completely withered))

Structure (SMILES): CCOc1ccccc1-c1sc2cc(OCCOC)ccc2c1-c1c(O)c(C)nn(C)c1=O [3-123]
- Herbicidal effect, A: late watergrass (late watergrass [1]): 5 (Herbicidal rate of 90% or more (almost completely withered))
- herbicidal effect rating, A: late watergrass (late watergrass [2]): 3 (Herbicidal rate of 40% or more and less than 70%)
- herbicidal effect rating, B: Japanese bulrush (Japanese bulrush): 3 (Herbicidal rate of 40% or more and less than 70%)
- herbicidal effect rating, C: oval-leafed pondweed (oval-leafed pondweed): 2 (Herbicidal rate of 20% or more and less than 40%)
- herbicidal effect on barnyard grass (H) (barnyard grass): 5 (Herbicidal rate of 90% or more (almost completely withered))
- herbicidal effect on rice flat sedge (E) (rice flat sedge): 5 (Herbicidal rate of 90% or more (almost completely withered))
- G: green foxtail, herbicidal effect grade (green foxtail [3]): 5 (Herbicidal rate of 90% or more (almost completely withered))
- K: Italian ryegrass, herbicidal effect grade (Italian ryegrass [4]): 5 (Herbicidal rate of 90% or more (almost completely withered))
- L: windgrass, herbicidal effect grade (windgrass [5]): 5 (Herbicidal rate of 90% or more (almost completely withered))
- P: chickweed, herbicidal effect grade (chickweed): 5 (Herbicidal rate of 90% or more (almost completely withered))
- R: persian speedwell, herbicidal effect grade (persian speedwell [6]): 5 (Herbicidal rate of 90% or more (almost completely withered))
- F: southern crabgrass, herbicidal effect grade (southern crabgrass): 5 (Herbicidal rate of 90% or more (almost completely withered))
- G: green foxtail, herbicidal effect grade (green foxtail [7]): 5 (Herbicidal rate of 90% or more (almost completely withered))
- K: Italian ryegrass, herbicidal effect grade (Italian ryegrass [8]): 5 (Herbicidal rate of 90% or more (almost completely withered))
- L: windgrass, herbicidal effect grade (windgrass [9]): 5 (Herbicidal rate of 90% or more (almost completely withered))
- O: lambsquarters, herbicidal effect grade (lambsquarters): 5 (Herbicidal rate of 90% or more (almost completely withered))
- R: persian speedwell, herbicidal effect grade (persian speedwell [10]): 5 (Herbicidal rate of 90% or more (almost completely withered))

Structure (SMILES): COc1ccccc1-c1sc2cc(OCCSC)ccc2c1-c1c(O)c(C)nn(C)c1=O [3-125]
- Herbicidal effect, A: late watergrass (late watergrass [1]): 3 (Herbicidal rate of 40% or more and less than 70%)
- herbicidal effect rating, A: late watergrass (late watergrass [2]): 0 (Herbicidal rate of 5% or less (almost no effect))
- herbicidal effect rating, B: Japanese bulrush (Japanese bulrush): 3 (Herbicidal rate of 40% or more and less than 70%)
- herbicidal effect rating, C: oval-leafed pondweed (oval-leafed pondweed): 3 (Herbicidal rate of 40% or more and less than 70%)
- herbicidal effect on barnyard grass (H) (barnyard grass): 5 (Herbicidal rate of 90% or more (almost completely withered))
- herbicidal effect on rice flat sedge (E) (rice flat sedge): 5 (Herbicidal rate of 90% or more (almost completely withered))
- G: green foxtail, herbicidal effect grade (green foxtail [3]): 2 (Herbicidal rate of 20% or more and less than 40%)
- K: Italian ryegrass, herbicidal effect grade (Italian ryegrass [4]): 5 (Herbicidal rate of 90% or more (almost completely withered))
- L: windgrass, herbicidal effect grade (windgrass [5]): 3 (Herbicidal rate of 40% or more and less than 70%)
- P: chickweed, herbicidal effect grade (chickweed): 5 (Herbicidal rate of 90% or more (almost completely withered))
- R: persian speedwell, herbicidal effect grade (persian speedwell [6]): 5 (Herbicidal rate of 90% or more (almost completely withered))
- F: southern crabgrass, herbicidal effect grade (southern crabgrass): 5 (Herbicidal rate of 90% or more (almost completely withered))
- G: green foxtail, herbicidal effect grade (green foxtail [7]): 5 (Herbicidal rate of 90% or more (almost completely withered))
- K: Italian ryegrass, herbicidal effect grade (Italian ryegrass [8]): 5 (Herbicidal rate of 90% or more (almost completely withered))
- L: windgrass, herbicidal effect grade (windgrass [9]): 5 (Herbicidal rate of 90% or more (almost completely withered))
- O: lambsquarters, herbicidal effect grade (lambsquarters): 4 (Herbicidal rate of 70% or more and less than 90%)
- R: persian speedwell, herbicidal effect grade (persian speedwell [10]): 5 (Herbicidal rate of 90% or more (almost completely withered))

Structure (SMILES): COc1ccc2c(-c3c(OC(=O)c4ccccc4OC)c(C)nn(C)c3=O)c(-c3ccccc3OC)sc2c1 [3-158]
- Herbicidal effect, A: late watergrass (late watergrass [1]): 5 (Herbicidal rate of 90% or more (almost completely withered))
- herbicidal effect rating, A: late watergrass (late watergrass [2]): 4 (Herbicidal rate of 70% or more and less than 90%)
- herbicidal effect rating, B: Japanese bulrush (Japanese bulrush): 3 (Herbicidal rate of 40% or more and less than 70%)
- herbicidal effect rating, C: oval-leafed pondweed (oval-leafed pondweed): 5 (Herbicidal rate of 90% or more (almost completely withered))
- herbicidal effect on barnyard grass (H) (barnyard grass): 5 (Herbicidal rate of 90% or more (almost completely withered))
- herbicidal effect on rice flat sedge (E) (rice flat sedge): 4 (Herbicidal rate of 70% or more and less than 90%)
- Herbicidal effect by soil treatment, G: green foxtail (green foxtail [3]): 0 (Herbicidal rate of 5% or less (almost no effect))
- Herbicidal effect by soil treatment, K: Italian ryegrass (Italian ryegrass [4]): 0 (Herbicidal rate of 5% or less (almost no effect))
- Herbicidal effect by soil treatment, L: windgrass (windgrass [5]): 0 (Herbicidal rate of 5% or less (almost no effect))
- Herbicidal effect by soil treatment, P: chickweed (chickweed): 1 (Herbicidal rate of 5% or more and less than 20%)
- Herbicidal effect by soil treatment, R: persian speedwell (persian speedwell [6]): 0 (Herbicidal rate of 5% or less (almost no effect))
- herbicidal effect on F: southern crabgrass (evaluation grade 0-5) (southern crabgrass; [11]): 5 (Herbicidal rate of 90% or more (almost completely withered))
- herbicidal effect on G: green foxtail (evaluation grade 0-5) (green foxtail [7]; [11]): 5 (Herbicidal rate of 90% or more (almost completely withered))
- herbicidal effect on K: Italian ryegrass (evaluation grade 0-5) (Italian ryegrass [8]; [11]): 4 (Herbicidal rate of 70% or more and less than 90%)
- herbicidal effect on L: windgrass (evaluation grade 0-5) (windgrass [9]; [11]): 5 (Herbicidal rate of 90% or more (almost completely withered))
- herbicidal effect on O: lambsquarters (evaluation grade 0-5) (lambsquarters; [11]): 5 (Herbicidal rate of 90% or more (almost completely withered))
- herbicidal effect on R: persian speedwell (evaluation grade 0-5) (persian speedwell [10]; [11]): 5 (Herbicidal rate of 90% or more (almost completely withered))
